Each block holds one molecule with its values, some of them ahead of it.
Experiments:
Assay type in all cases: biochemical, Rhodotorula toruloides
[1] = system: RTO4_11882 (D-galUA reductase, GAR1 homolog); assay: NADPH loss at […] nm; conditions: 0.3 mM NADPH, pH 7, 30°C
[2] = system: T1, RTO4_12062 (L-galactonate dehydratase); assay: semicarbazide assay at […] nm; conditions: 5 mM MgCl2, 50 mM sodium phosphate pH 7.0; tag removed
T1 construct: gene GaaB; full-length, N-terminal HIS6-TEV tag removed by TEV protease, expressed in E. coli Rosetta, IMAC

[3] = system: T2, RTO4_9774 (L-glyceraldehyde reductase); assay: NADPH loss at […] nm; conditions: 0.3 mM NADPH, pH 7, 30°C
T2 construct: gene GaaD

Km [1]: ~7 mM
Structure (SMILES): O=C(O)[C@H]1OC(O)[C@H](O)[C@@H](O)[C@H]1O (stereo partly drawn) [D-galUA]

Km [2]: 5.8 mM
Structure (SMILES): O=C(O)[C@@H](O)[C@H](O)[C@H](O)[C@@H](O)CO [L-galactonate]

Km [3]: 0.9 mM
Structure (SMILES): O=C[C@@H](O)CO [L-glyceraldehyde]
